Assay results published in US8569344B2, “N-piperidinyl acetamide derivatives as calcium channel blockers” (Zalicus Pharmaceuticals Ltd., priority 2008, dated 2013).

How the values were obtained:
[1] = target: T1, human α1G T-type channels (Homo sapiens, UniProt O43497); test: T-type calcium channel block, whole cell patch clamp in HEK cells (α1G); format: cell-based; conditions: HEK cells, patch clamp, mainly non-inactivated protocol; values above 10 μM shown as 10 μM, below 0.30 μM shown as 0.30 μM; read-out: T-type Calcium Channel Block α1G IC50
T1 construct: expressed in transfected cells; host or cells: HEK 293

[2] = target: T2, human α1H T-type channels (Homo sapiens, UniProt O95180); test: T-type calcium channel block, whole cell patch clamp in HEK cells (α1H); format: cell-based; conditions: HEK cells, patch clamp, mainly non-inactivated protocol; values above 10 μM shown as 10 μM; read-out: T-type Calcium Channel Block α1H IC50
T2 construct: expressed in transfected cells; host or cells: HEK 293
T2 sequence (O95180 whole entry): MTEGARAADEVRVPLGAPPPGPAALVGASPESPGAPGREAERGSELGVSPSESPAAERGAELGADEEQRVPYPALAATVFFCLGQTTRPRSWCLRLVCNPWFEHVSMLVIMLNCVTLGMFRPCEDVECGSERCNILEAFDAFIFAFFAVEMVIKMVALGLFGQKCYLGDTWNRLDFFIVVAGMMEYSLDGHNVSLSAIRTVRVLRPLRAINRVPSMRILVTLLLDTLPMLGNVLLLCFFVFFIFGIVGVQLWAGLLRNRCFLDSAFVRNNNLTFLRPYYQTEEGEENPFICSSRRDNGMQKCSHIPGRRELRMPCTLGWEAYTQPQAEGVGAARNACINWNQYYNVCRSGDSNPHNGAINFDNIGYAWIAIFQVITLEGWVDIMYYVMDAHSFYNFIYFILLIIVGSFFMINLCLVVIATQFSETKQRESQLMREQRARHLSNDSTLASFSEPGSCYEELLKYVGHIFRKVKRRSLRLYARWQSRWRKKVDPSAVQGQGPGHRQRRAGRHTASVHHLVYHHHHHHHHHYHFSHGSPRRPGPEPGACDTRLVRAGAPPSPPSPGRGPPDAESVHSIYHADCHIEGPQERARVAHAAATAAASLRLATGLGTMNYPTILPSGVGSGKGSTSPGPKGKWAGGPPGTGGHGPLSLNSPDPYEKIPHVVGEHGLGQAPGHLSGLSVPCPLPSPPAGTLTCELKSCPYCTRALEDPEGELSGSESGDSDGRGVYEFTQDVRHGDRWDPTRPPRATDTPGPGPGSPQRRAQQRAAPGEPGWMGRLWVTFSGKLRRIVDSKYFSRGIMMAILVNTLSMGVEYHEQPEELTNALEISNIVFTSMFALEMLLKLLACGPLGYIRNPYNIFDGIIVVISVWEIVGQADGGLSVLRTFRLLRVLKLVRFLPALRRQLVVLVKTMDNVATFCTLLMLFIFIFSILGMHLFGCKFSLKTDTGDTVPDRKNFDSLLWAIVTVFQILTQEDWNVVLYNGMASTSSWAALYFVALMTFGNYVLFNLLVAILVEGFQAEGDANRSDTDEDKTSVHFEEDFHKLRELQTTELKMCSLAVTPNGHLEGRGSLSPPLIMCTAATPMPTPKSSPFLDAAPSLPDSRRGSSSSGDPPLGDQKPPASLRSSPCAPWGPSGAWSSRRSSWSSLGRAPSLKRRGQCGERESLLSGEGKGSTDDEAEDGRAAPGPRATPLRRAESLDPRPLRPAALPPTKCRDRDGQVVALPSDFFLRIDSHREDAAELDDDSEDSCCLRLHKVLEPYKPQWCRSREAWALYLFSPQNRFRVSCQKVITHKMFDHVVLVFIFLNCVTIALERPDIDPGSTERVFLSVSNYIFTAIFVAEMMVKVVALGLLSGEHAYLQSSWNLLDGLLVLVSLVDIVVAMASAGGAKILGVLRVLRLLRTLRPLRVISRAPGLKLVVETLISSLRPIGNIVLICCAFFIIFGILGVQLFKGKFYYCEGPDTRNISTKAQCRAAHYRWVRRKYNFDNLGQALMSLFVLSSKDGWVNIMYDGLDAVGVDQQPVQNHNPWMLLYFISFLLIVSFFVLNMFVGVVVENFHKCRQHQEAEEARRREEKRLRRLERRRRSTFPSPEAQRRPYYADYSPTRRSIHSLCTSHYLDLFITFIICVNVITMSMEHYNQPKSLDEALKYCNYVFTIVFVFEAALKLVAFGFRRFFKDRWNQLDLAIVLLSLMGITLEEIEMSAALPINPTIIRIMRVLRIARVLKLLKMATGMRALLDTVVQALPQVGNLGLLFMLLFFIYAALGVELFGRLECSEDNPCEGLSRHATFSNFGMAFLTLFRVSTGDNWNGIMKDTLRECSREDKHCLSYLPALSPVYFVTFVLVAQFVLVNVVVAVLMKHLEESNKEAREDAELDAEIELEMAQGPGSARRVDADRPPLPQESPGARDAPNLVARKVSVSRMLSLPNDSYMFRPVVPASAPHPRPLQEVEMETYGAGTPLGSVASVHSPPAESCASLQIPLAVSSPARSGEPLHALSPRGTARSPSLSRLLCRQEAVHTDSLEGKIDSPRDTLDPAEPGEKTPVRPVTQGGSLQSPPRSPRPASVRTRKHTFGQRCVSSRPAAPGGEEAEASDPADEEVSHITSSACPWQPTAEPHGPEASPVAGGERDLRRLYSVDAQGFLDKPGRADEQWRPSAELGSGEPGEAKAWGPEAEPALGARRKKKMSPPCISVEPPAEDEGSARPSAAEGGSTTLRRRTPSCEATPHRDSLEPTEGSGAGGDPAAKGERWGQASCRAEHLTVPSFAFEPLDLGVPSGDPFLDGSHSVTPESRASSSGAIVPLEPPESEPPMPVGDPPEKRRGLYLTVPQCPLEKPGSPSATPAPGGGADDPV

T1 sequence (O43497 whole entry): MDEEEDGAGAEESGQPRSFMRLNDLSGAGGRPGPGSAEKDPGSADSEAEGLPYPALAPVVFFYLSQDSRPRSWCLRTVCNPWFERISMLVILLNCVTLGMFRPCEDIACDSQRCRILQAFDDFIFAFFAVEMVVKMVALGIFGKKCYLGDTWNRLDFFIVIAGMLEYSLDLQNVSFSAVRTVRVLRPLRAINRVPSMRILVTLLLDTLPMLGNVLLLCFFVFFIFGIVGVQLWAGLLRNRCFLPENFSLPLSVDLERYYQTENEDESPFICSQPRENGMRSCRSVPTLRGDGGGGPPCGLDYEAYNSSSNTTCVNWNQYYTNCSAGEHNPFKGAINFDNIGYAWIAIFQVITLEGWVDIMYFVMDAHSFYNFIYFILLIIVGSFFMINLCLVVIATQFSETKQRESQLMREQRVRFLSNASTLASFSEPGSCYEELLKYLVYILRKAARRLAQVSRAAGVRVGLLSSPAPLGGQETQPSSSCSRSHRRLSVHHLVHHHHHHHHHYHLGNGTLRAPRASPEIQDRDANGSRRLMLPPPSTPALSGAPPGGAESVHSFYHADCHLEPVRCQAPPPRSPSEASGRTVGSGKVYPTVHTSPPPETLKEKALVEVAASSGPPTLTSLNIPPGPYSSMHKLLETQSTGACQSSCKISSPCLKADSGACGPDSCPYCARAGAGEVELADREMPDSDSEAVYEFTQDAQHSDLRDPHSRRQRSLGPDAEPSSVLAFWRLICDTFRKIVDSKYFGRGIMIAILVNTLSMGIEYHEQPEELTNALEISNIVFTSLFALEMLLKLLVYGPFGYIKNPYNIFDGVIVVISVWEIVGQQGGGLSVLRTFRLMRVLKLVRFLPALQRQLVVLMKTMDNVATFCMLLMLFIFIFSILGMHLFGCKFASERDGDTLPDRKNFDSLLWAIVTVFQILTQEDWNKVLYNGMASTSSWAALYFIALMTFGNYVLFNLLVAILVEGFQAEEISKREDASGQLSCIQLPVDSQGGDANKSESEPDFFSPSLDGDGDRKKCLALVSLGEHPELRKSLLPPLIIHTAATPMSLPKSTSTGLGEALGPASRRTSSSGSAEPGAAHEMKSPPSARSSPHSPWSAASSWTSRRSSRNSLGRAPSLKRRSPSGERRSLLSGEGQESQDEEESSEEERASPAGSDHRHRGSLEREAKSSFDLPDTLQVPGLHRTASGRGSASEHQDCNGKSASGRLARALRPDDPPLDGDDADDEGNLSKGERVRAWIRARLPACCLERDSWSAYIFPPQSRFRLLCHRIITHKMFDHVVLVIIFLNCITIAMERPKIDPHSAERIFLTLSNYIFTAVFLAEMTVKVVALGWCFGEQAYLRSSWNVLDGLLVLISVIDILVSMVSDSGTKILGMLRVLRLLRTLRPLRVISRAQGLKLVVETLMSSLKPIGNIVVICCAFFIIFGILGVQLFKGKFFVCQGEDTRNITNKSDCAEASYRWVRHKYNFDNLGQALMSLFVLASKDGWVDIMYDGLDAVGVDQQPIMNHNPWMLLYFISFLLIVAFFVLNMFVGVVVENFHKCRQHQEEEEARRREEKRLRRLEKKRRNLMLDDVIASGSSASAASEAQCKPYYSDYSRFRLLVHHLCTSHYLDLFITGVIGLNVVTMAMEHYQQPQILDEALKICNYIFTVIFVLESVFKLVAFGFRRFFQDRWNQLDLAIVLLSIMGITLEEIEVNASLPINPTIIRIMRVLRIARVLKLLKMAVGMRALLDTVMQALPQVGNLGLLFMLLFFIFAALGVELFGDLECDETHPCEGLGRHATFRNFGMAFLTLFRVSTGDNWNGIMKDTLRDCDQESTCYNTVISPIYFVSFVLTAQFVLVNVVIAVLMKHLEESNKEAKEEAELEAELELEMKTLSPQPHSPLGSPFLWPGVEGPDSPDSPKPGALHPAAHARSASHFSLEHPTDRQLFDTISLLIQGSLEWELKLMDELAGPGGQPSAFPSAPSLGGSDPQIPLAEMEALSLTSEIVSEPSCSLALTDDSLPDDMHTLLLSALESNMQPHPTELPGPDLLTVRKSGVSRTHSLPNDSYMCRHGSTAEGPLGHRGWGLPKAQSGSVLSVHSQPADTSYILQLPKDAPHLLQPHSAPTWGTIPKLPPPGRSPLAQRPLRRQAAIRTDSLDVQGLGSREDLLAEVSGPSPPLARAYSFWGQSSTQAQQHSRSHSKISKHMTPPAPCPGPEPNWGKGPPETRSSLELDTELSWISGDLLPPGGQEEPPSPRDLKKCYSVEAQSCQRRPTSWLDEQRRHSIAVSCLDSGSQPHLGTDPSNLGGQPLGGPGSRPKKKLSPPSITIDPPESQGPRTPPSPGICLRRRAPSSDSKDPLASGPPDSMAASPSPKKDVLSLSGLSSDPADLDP

Structure (SMILES) | IC50 [1] | IC50 [2]
CC(C)(C)NC(=O)CN1CCC(CNC(=O)c2cc(Cl)cc(Br)c2)CC1 [Compound 381, 3-bromo-N-((1-(2-(tert-butylamino)-2-oxoethyl)piperidin-4-yl)methyl)-5-chlorobenzamide] | < 300 nM | 80 nM
O=C(CC1CCN(C(=O)[C@@H]2CCCCN2)CC1)Nc1cc(C(F)(F)F)cc(C(F)(F)F)c1 [Compound 195, (S)-N-(3,5-bis(trifluoromethyl)phenyl)-2-(1-(piperidine-2-carbonyl)piperidin-4-yl)acetamide] | 4780 nM | 1970 nM
CC1CCCCC1NCC(=O)N1CCC(CNC(=O)c2cc(C(F)(F)F)cc(C(F)(F)F)c2)CC1 (stereo not shown) [Compound 248, N-((1-(2-(2-methylcyclohexylamino)acetyl)piperidin-4-yl)methyl)-3,5-bis(trifluoromethyl)benzamide] | < 300 nM | 480 nM
CC(C)(C)OC(=O)NCCN1CCC(CNC(=O)c2cc(C(F)(F)F)cc(C(F)(F)F)c2)CC1 [Compound 35, tert-butyl 2-(4-((3,5-bis(trifluoromethyl)benzamido)methyl)piperidin-1-yl)ethylcarbamate] | 410 nM | 160 nM
CC(C)(C)C1CCN(CC(=O)N2CCC(CNC(=O)c3cc(F)cc(C(F)(F)F)c3)CC2)CC1 [Compound 285, N-((1-(2-(4-tert-butylpiperidin-1-yl)acetyl)piperidin-4-yl)methyl)-3-fluoro-5-(trifluoromethyl)benzamide] | 4940 nM | > 10000 nM
O=C(NCC1CCN(CCNC(=O)C2(C(F)(F)F)CC2)CC1)c1cc(C(F)(F)F)cc(C(F)(F)F)c1 [Compound 342, 3,5-bis(trifluoromethyl)-N-((1-(2-(1-(trifluoromethyl)cyclopropanecarbox-amido)ethyl)piperidin-4-yl)methyl) benzamide] | < 300 nM | 70 nM
COc1cc(F)cc(C(=O)NCC2CCN(CCNS(=O)(=O)C3CC3)CC2)c1 [Compound 321, N-((1-(2-(cyclopropanesulfonamido)ethyl)piperidin-4-yl)methyl)-3-fluoro-5-methoxybenzamide] | 1330 nM | 1920 nM
CCCNC(=O)CN1CCC(CNC(=O)c2cc(C)cc(F)c2)CC1 [Compound 446, 3-fluoro-5-methyl-N-((1-(2-oxo-2-(propylamino)ethyl)piperidin-4-yl)methyl)benzamide] | > 10000 nM | > 10000 nM
COC1CCN(CC(=O)N2CCC(CNC(=O)c3cc(C(F)(F)F)cc(C(F)(F)F)c3)CC2)CC1 [Compound 251, N-((1-(2-(4-methoxypiperidin-1-yl)acetyl)piperidin-4-yl)methyl)-3,5-bis(trifluoromethyl)benzamide] | > 10000 nM | > 10000 nM
O=C(CN1CCC(CNC(=O)c2cc(F)cc(Cl)c2)CC1)NC1(C2CCOCC2)CC1 [Compound 563, 3-chloro-5-fluoro-N-((1-(2-oxo-2-(1-(tetrahydro-2H-pyran-4-yl)cyclopropylamino)ethyl)piperidin-4-yl)methyl)benzamide] | < 300 nM | 310 nM
O=C(NCC1CCN(C(=O)CNC2CCCCC2)CC1)c1cc(F)cc(C(F)(F)F)c1 [Compound 276, N-((1-(2-(cyclohexylamino)acetyl)piperidin-4-yl)methyl)-3-fluoro-5-(trifluoromethyl)benzamide] | 310 nM | 1090 nM
CC(C)(C)OC(=O)NC1(C(=O)NCCN2CCC(CNC(=O)c3cc(F)cc(C(F)(F)F)c3)CC2)CCC1 [Compound 572, tert-buyl 1-(2-(4-((3-fluoro-5-(trifluoromethyl)benzamido)methyl)piperidin-1-yl)ethylcarbamoyl) cyclobutylcarbamate] | 490 nM | 1560 nM
CCCNC(=O)CN1CCC(CNC(=O)c2cccc(OC(F)(F)F)c2)CC1 [Compound 453, N-((1-(2-oxo-2-(proyplamino)ethyl)piperidin-4-yl)methyl)-3-(trifluoromethoxy)benzamide] | 8240 nM | > 10000 nM
O=C(NCC1CCN(CC(=O)N2CC[C@H](C(F)(F)F)C2)CC1)c1cc(C(F)(F)F)cc(C(F)(F)F)c1 [Compound 348, (S)-N-((1-(2-oxo-2-(3-(trifluoromethyl)pyrrolidin-1-yl)ethyl)piperidin-4-yl)methyl)-3,5-bis(trifluoromethyl)benzamide] | < 300 nM | 110 nM
COc1cc(OC)cc(C(=O)NCC2CCN(CCNS(=O)(=O)C(C)(C)C)CC2)c1 [Compound 576, N-((1-(2-(1,1-dimethyethylsulfonamido)ethyl)piperidin-4-yl)methyl)-3,5-dimethoxybenzamide] | 430 nM | 930 nM
COc1cc(Cl)cc(C(=O)NCC2CCN(CCNS(=O)(=O)C3CC3)CC2)c1 [Compound 322, 3-chloro-N-((1-(2-(cyclopropanesulfonamido)ethyl)piperidin-4-yl)methyl)-5-methoxybenzamide] | 4050 nM | 2140 nM

Structure (SMILES) | IC50 [1] | IC50 [2]
COc1cc(C(=O)NCC2CCN(CC(=O)NC(C)(C)C)CC2)cc(C(F)(F)F)c1 [Compound 379, N-((1-(2-(tert-buylamino)-2-oxoethyl)piperidin-4-yl)methyl)-3-methoxy-5-(trifluoromethyl)benzamide] | < 300 nM | 130 nM
CC(C)(C)C(C)(O)C(=O)N1CCC(CNC(=O)c2cc(C(F)(F)F)cc(C(F)(F)F)c2)CC1 (stereo not shown) [Compound 89, N-((1-(2-hydroxy-2,3,3-trimethylbutanoyl)piperidin-4-yl)methyl)-3,5-bis(trifluoromethyl)benzamide] | 4100 nM | > 10000 nM
O=C(NCC1CCN(C(=O)CNC2CCCC2)CC1)c1cc(F)cc(C(F)(F)F)c1 [Compound 273, N-((1-(2-(cyclopentylamino)acetyl)piperidin-4-yl)methyl)-3-fluoro-5-(trifluoromethyl)benzamide] | 360 nM | 1420 nM
O=C(NCC1CCN(C(=O)CN2CCCC(C(F)(F)F)C2)CC1)c1cc(C(F)(F)F)cc(C(F)(F)F)c1 (stereo not shown) [Compound 255, 3,5-bis(trifluoromethyl)-N-((1-(2-(3-(trifluoromethyl)piperidin-1-yl)acetyl)piperidin-4-yl)methyl)benzamide] | 570 nM | 2340 nM
O=C(NCC1CCN(C(=O)CNC2CCCCC2)CC1)c1cc(C(F)(F)F)cc(C(F)(F)F)c1 [Compound 249, N-((1-(2-(cyclohexylamino)acetyl)piperidin-4-yl)methyl)-3,5-bis(trifluoromethyl)benzamide] | < 300 nM | 580 nM
CS(=O)(=O)NC1(CN2CCC(CNC(=O)c3cc(C(F)(F)F)cc(C(F)(F)F)c3)CC2)CC1 [Compound 357, N-((1-((1-(methylsulfonamido)cyclopropyl)methyl)piperidin-4-yl)methyl)-3,5-bis(trifluoromethyl)benzamide] | 2150 nM | 1270 nM
O=C(NCC1CCN(CCNC(=O)C2(C(F)(F)F)CCC2)CC1)c1cc(F)cc(C(F)(F)F)c1 [Compound 435, 3-fluoro-5-(trifluoromethyl)-N-((1-(2-(1-(trifluoromethyl)cyclobutanecarboxamido)ethyl)piperidin-4-yl)methyl)benzamide] | < 300 nM | 90 nM
O=C(NCC1CCN(CCNC(=O)C2(C(F)(F)F)CCC2)CC1)c1cccc(Cl)c1 [Compound 512, 3-chloro-N-((1-(2-(1-(trifluoromethyl)cyclobutanecarboxamido)ethyl)piperidin-4-yl)methyl)benzamide] | < 300 nM | 190 nM
C[C@H]1CC[C@H](NCC(=O)N2CCC(CNC(=O)c3cc(C(F)(F)F)cc(C(F)(F)F)c3)CC2)CC1 [Compound 264, N-((1-(2-((1r,4r)-4-methylcyclohexylamino)acetyl)piperidin-4-yl)methyl)-3,5-bis(trifluoromethyl)benzamide] | < 300 nM | 530 nM
CC(C)(C)Oc1cccc(C(=O)NCC2CCN(CCNS(=O)(=O)C3CC3)CC2)c1 [Compound 229, 3-tert-butoxy-N-((1-(2-(cyclopropanesulfonamido)ethyl)piperidin-4-yl)methyl)benzamide] | > 10000 nM | > 10000 nM
CCNC(=O)NC1(CN2CCC(CNC(=O)c3cc(C(F)(F)F)cc(C(F)(F)F)c3)CC2)CCCC1 [Compound 11, N-((1-((1-(3-ethylureido)cyclopentyl)methyl)piperidin-4-yl)methyl)-3,5-bis(trifluoromethyl)benzamide] | 1890 nM | 3800 nM
CC(C)(F)C(=O)NCCN1CCC(CNC(=O)c2cc(C(F)(F)F)cc(C(F)(F)F)c2)CC1 [Compound 335, N-((1-(2-(2-fluoro-2-methylpropanamido)ethyl)piperidin-4-yl)methyl)-3,5-bis(trifluoromethyl) benzamide] | 330 nM | 310 nM
O=C(NCC1CCN(CC(=O)N2CCC[C@@H]2C(F)(F)F)CC1)c1cccc(F)c1 [Compound 508, (R)-3-fluoro-N-((1-(2-oxo-2-(2-(trifluoromethyl)pyrrolidin-1-yl)ethyl)piperidin-4-yl)methyl) benzamide] | > 10000 nM | 9220 nM
CCC1CCCCN1CC(=O)N1CCC(CNC(=O)c2cc(F)cc(C(F)(F)F)c2)CC1 (stereo not shown) [Compound 269, N-((1-(2-(2-ethylpiperidin-1-yl)acetyl)piperidin-4-yl)methyl)-3-fluoro-5-(trifluoromethyl)benzamide] | 1400 nM | 3140 nM
CC1(NC(=O)CN2CCC(CNC(=O)c3ccc(F)cc3)CC2)CCC1 [Compound 529, 4-fluoro-N-((1-(2-(1-methylcyclobutyl-amino)-2-oxoethyl)piperidin-4-yl)methyl)benzamide] | 5440 nM | 2510 nM
C[C@@H]1CCCCN1CC(=O)N1CCC(CNC(=O)c2cc(F)cc(C(F)(F)F)c2)CC1 [Compound 279, (R)-3-fluoro-N-((1-(2-(2-methyl-piperidin-1-yl)acetyl)piperidin-4-yl)methyl)-5-(trifluoromethyl)benzamide] | > 10000 nM | > 10000 nM
